Read-outs that look alike come from different tables or passages of the source.
Experiments:
[1] = prazosin: at 0.2 mg/kg in mice; cited from earlier work
[2] = test system: immobility in tail suspension test; test: Tail suspension test (TST); assay type: in vivo, mice; conditions: intracerebral administration
Protocol: (§1) In the RFS study, mice were subjected to 4 daily 15 min swims as described above and were injected i.p. with either vehicle or dp6FNE (3 mg/kg) 15 min prior to the 5th swim. In the TST study, animals were injected similarly before a 6 min test. […] The animals were anesthetized and perfused for immuno-histochemistry 70 min after the start of the swim or tail suspension. Brains were processed as described previously for double-label immunofluorescent Fos/tyrosine hydroxylase staining of all sections through the LC and for single-label Fos staining through the full PVH (Stone et al., Brain Res (2009) 1291: 21-31).
To determine if dp6FNE was active in a more traditional test of antidepressant activity, it was given as above 15 min prior to a tail suspension test.
(§2) The first test involves an acute stress-induced model of depression (Steru, et al., Psychopharmacology 1985; 85: 367-370) whereas the second, a more prolonged, chronic depression that is more akin to chronic human depression (Stone, et al., Pharmacol Biochem Behav 2008; 91: 190-195).

[3] = test system: locomotor behavior in an open field; test: Open field locomotor behavior after ivt. 6FNE or i.p. dp6FNE versus amphetamine; assay type: in vivo, mice
Protocol: 6FNE and dp6FNe were tested for their effects on motor activity by measuring locomotor behavior in an open field after either ivt. (6FNE) or i.p. injection (dp6fNE) in mice. These mice were compared to animals that were either non handled or received either a vehicle ivt injection or an i.p. injection of the stimulant, amphetamine (5 mg/kg). The results are shown in FIG. 6 and in (Stone, Lin Y, Sarfraz Y, and Quartermain D, 2011). […] Furthermore, the increase in activity after 6FNE was minor in comparison with the bona fide stimulant, amphetamine which produced a 10 fold increase. The small increase over the vehicle group therefore appears to be the result of a reduction of the stress caused by the handling and restraint for the ivt. injection which is in agreement with the reduced activation of brain stress circuits discussed above. This interpretation was supported by an examination of the time in the center or risky area of the field spent by the various groups. […] A slight reduction in motor behavior at the low doses (0.1-0.3 mg/kg) were, however, observed.

[4] = test system: repeated open-space swim model; test: Repeated open-space (forced) swim test; assay type: in vivo, mice; conditions: for antidepressant activity in the repeated open-space forced swim test: intracerebral administration
From the text: as §2

[5] = test system: model of chronic depression in mice (repeated forced swim); conditions: for acute antidepressant (anti-immobility) effect in the RFS: single acute i.p. administration minutes before the swim, low doses, prazosin 0.2 mg/kg present
From the text: We administered the pro-drugs shortly before one or more tests of antidepressant activity including reversal of immobility during tail suspension and forced swimming and attenuation of anhedonia produced by endotoxin administration. […] (Stone et al., Eur. J. Pharmacol. (2001) 420: 97-102) Because dp6FNE like all other antidepressants has an initial anorexic effect and acutely reduces the consumption of sweet solutions, in the test for anhedonia it was necessary to employ a non-nutritive hedonic behavior, FUST (sniffing of estrous female urine). […] (Stone et al., Neuropsychopharmacology (2011) 14: 319-331); Sun et al., J. Neurosci. Methods (2003) 126:35-40; Sun et al., Behavioral Pharmacology (2008) 19: 334-338).
Mice were swum for 15 min/d on 4 d and tested for the response to acute i.p dp6FNE (1 or 3 mg/kg) alone or in combination with 8-OHDPAT (0.05 mg/kg) and corticosterone (3 mg/kg) on the 5th and final swim (15 min after drug administration). […] Comparison groups receiving currently available antidepressants were treated acutely i.p. or chronically (14 d osmotic pumps) with either desmethylimipramine (DMI) (10 mg/kg), fluoxetine (5 mg/kg), escitalopram (5 mg/kg), bupropion (10 mg/kg) or ketamine (10 mg/kg).
Although corticosteroids are well known to produce depression (Gourley et al., Biol Psychiatry (2008) 64: 884-890), this occurs at high doses only. […] Mice were swum for 3 d and given either vehicle (0.8% ethanol) or corticosterone (12.5 μg/ml) in their drinking water.
As described in Example 4a, the cocktail was tested in a mouse model of chronic depression (RFS).

[6] = test system: home cage exploration in handling-stressed mice; test: Home cage activity after handling and injection stress; assay type: in vivo
Protocol: FIG. 15 depicts the effect of acute i.p. dp6FNE (1 mg/kg) or cirazoline (0.1 mg/kg), (N=1), on home cage activity in terms of rearing and ambulation, Veh (N=12).
6FNE has a more rapid and/or greater antidepressant effect than either of these agonists because 6FNE is the only known selective α-agonist that has full efficacy at all brain α-adrenoceptors and 6FNE works within minutes (Stone, et al. 2011) whereas cirazoline was given to mice over several months prior to testing in one model (forced swim test) in the above experiment by Doze et al, 2009. […] (Stone, E A, Lin Y, Quartermain, D, Unpublished results)
It is known that peripheral administration of α1-agonists without phentolamine impairs exploratory behavior in the open field (Yang, et al., J Pharmacol exp Ther 1990; 255: 1064-1070).

PVH Fos expression = test: Fos expression in the PVH, RFS model, corticosterone in the drinking water; assay type: in vivo, mice; conditions: versus veh
From the text: (§3) GR agonists such as corticosterone and dexamethasone are well known to produce selective inhibition of the neural activity of parvocellular PVH neurons at low doses (Keller-Wood et al., Endo Rev (1982) 5: 1-24; Dallman et al., Ann N Y Acad Sci 91987) 512: 402-414). This effect was shown in a previous experiment on the effects of corticosterone in the drinking water on Fos expression in the PVH or piriform cortex of mice subjected to the RFS model (Stone et al., eur J Pharmacol (2007) In Press). The animals were swum a total of 3 times and on the night prior to the 3rd swim given corticosterone at 12.5, 25 or 50 μg/ml in the drinking water. These concentrations produced nighttime intakes of 4.6, 10.7 and 14.2 mg/kg. The mice were given the 3rd and final swim the following morning, 0800-1000 h, and were anesthetized and perfused 70 min after the start of the swim for immunohistochemical assay of Fos in the PVH and in the piriform cortex, a control region that supports positively motivated behavior (Carr et al., Neuropsychopharmacology (2010) 35: 752-763; Stone et al., Neurosci Biobehav Revs (2008a) 32: 508-524).

[7] = test system: Fos expression in the piriform cortex; test: Fos expression in the piriform cortex, RFS model, corticosterone in the drinking water; assay type: in vivo, mice; conditions: versus veh
From the text: as §3

[8] = test system: open field behavior (locomotion and center square occupancy); test: Open field motor activity and anxiety after capture and injection; assay type: in vivo, mice; conditions: corticosterone 12.5 μg/ml in drinking water (4.6 mg/kg)
Protocol: To determine if the agonists had motor stimulating or sedative actions, mice were allowed to explore an open field undisturbed for 60 min and were then captured and injected i.p. with either vehicle or the full “cocktail” of the 3 […] (dp6FNE 1 mg/kg; 8-OHDPAT, 0.05 mg/kg; corticosterone, 3 mg/kg, praz, 0.2 mg/kg) before being replaced in the field for a final 15 min. The vehicle injection (praz present) reduced subsequent locomotion and time spent in the center of the field by −76.8±11.0% and −78.5±12.4%, respectively, from preceding levels, indicating an anxiogenic effect of the injection procedure. The injection of the “cocktail”, however, rescued both locomotion and center time to −12.9±1.9% and −25.3±6.9%, respectively, indicating a strong anti-anxiety effect with no motor stimulation or sedation (FIG. 9).
In addition to its antidepressant property, the cocktail is also effective in producing a significant antianxiety effect without sedation in these animals. The applicants have tested for this effect using an open field in which animals are placed and permitted to explore freely after which they are captured, restrained briefly for an ip. injection of saline and returned to the field for a final 15 min. […]

[9] = oral; cited from earlier work
Fos expression in the LC = Fos expression in the LC during the RFS model; assay type: in vivo, mice; conditions: prazosin 0.2 mg/kg; vehicle animals compared with previous results without prazosin
Protocol: as §1, with “21-31). […] In the tail suspended mice the analogous reductions were 53.5±7.2% (LC) and 36.7±3.1 (PVH). […] These findings thus indicate that a dose of […] dp6FNE that has preferential inhibitory effects on the LC during depression exists.” for “21-31).”

[10] = corticosterone 25 μg/ml in drinking water, nighttime intake 10.7 mg/kg
[11] = corticosterone 50 μg/ml in drinking water, nighttime intake 14.2 mg/kg
[12] = corticosterone 12.5 μg/ml in drinking water, nighttime intake 4.6 mg/kg, mice swum for 3 d, versus vehicle

NCC(O)c1cc(O)c(O)cc1F (stereo not drawn) [6FNE, 6-fluoronorepinephrine]
passage of the blood brain barrier [1]: does not pass the blood brain barrier
antidepressant activity in the tail suspension test [2]: equally effective
time in the center of the field ([3]; 6FNE ivt. or dp6FNE i.p.): restored this behavior back to the level of the non-handled controls
effect on motor activity in the open field ([3]; mouse, in vivo, ip): no change in activity compared to the non-handled animals
antidepressant activity in the repeated open-space forced swim test [4]: effective

CNCCCN1c2ccccc2CCc2ccccc21 [DMI, desmethylimipramine]
acute effect in the repeated open-space swim test ([4]; acute i.p., dp6FNE at 1, 3 and 10 mg/kg given along with phentolamine 5 mg/kg i.p.): complete lack of effect

CC(N)Cc1ccccc1 (stereo not drawn) [amphetamine]
increase in activity in the open field ([3]; amphetamine 5 mg/kg i.p.): 10 fold

CCC1(c2cnc[nH]2)Cc2ccccc2C1 [atipamezole]
effect of receptor blockade on the antidepressant actions of dp6FNE in the RFS ([5]; mouse, in vivo): significantly reversed the antidepressant actions of pro-drug in the RFS

c1ccc(C2CC2)c(OCC2=NCCN2)c1 [cirazoline]
effect by itself on movement and motor behavior in the home cage ([6]; cirazoline i.p., unpublished results): pronounced inhibition of movement and motor behavior
behavioral inhibition in the home cage following handling and injection stress ([6]; i.p., dp6FNE (1 mg/kg) in the presence of phentolamine, cirazoline (0.1 mg/kg)): not effective in reducing behavioral inhibition

C[C@]12C[C@H](O)[C@H]3[C@@H](CCC4=CC(=O)CC[C@@]43C)[C@@H]1CC[C@@H]2C(=O)CO [corticosterone]
reduction of PVH Fos expression (PVH Fos expression; corticosterone 12.5 μg/ml in drinking water, nighttime intake 4.6 mg/kg, 70 min after start of 3rd swim): −51.7±17%
reduction of PVH Fos expression (PVH Fos expression; [10]): −66.8±8.5%
reduction of PVH Fos expression (PVH Fos expression; [11]): −63.7±11.0%
increase of distance swum [5, 12]: +107.7±15.8%
reduction in immobility [5, 12]: −36.6±5.7%
acute antidepressant (anti-immobility) effect in the RFS [5]: rapid and effective preclinical antidepressant actions
acute antidepressant (anti-immobility) effect in the RFS ([5]; listed as corticosteroid): immediate and effective antidepressant action
increase of Fos expression in the piriform cortex ([7]; corticosterone 12.5 μg/ml in drinking water, nighttime intake 4.6 mg/kg): +203.3±78.6%
increase of Fos expression in the piriform cortex [7, 10]: +175.3±53.9%
increase of Fos expression in the piriform cortex [7, 11]: +193.3±67.4%
open field locomotion [8]: No effect

C[C@@H]1C[C@H]2[C@@H]3CCC4=CC(=O)C=C[C@]4(C)[C@@]3(F)[C@@H](O)C[C@]2(C)[C@@]1(O)C(=O)COP(=O)(O)O [dexamethasone sodium phosphate]
bioavailability [9]: approximately 0.5

Cc1cccc([C@H](C)c2cnc[nH]2)c1C [dexmedetomidine]
antidepressant activity in the tail suspension test [2]: equally effective
antidepressant activity in the repeated open-space forced swim test [4]: only 6FNE was effective

CNC1(c2ccccc2Cl)CCCCC1=O (stereo not drawn) [ketamine]
acute antidepressant (anti-immobility) effect in the RFS [5]: None of the currently available antidepressants that were tested, including ketamine, appeared acutely effective

COc1cc2nc(N3CCN(C(=O)c4ccco4)CC3)nc(N)c2cc1OC [prazosin]
effect of receptor blockade on the antidepressant actions of dp6FNE in the RFS ([5]; high dose systemic prazosin or α2-antagonist atipamezole given with dp6FNE): significantly reversed the antidepressant actions of pro-drug in the RFS
effect of the antagonist on LC or PVH Fos (Fos expression in the LC): no effect

Reference: patent US9265774B2, “Methods, compounds and pharmaceutical compositions for treating anxiety and mood disorders” (New York University, priority 2011, dated 2016)
